Target: T1, RAMP2-CLR (AM1 receptor) (Homo sapiens, UniProt O60895+Q16602)
T1 construct: FLAG; expressed in transfected cells; host or cells: HEK-293 or HEK-293S cells, transient transfection, 1:1 RAMP:CLR
Test: S. cerevisiae growth assay, GPA1/Gαq chimera, RAMP2 + CLR
Assay type: cell-based
Conditions: percentage of yeast strain MMY11 (lacking GPA1); 24-h; mean ± S.E., n = 6
Method: FIGURE 7. […] Reporter gene activity was determined following 24-h stimulation. All data are expressed as percentage of the maximum response observed in yeast strain MMY11 and are means ± S.E. of n individual data sets. D, Bar chart showing the efficacy of each ligand for each RAMP-CLR combination at the Gαq chimera determined via application of the operational model of receptor agonism (Ref. [34] and Table 1). Data were determined as statistically different from the cognate ligand for each receptor (***, p < 0.001; ****, p < 0.0001) using one-way ANOVA with Bonferroni's post-test. E, signaling bias plots were calculated as ΔΔ(τ/Ka) values on a logarithmic scale for each ligand and for each chimera G protein for the three individual RAMP-CLR complexes.
General yeast procedures were performed as described previously ([22], [24]). […] Receptor signaling was measured using the yeast growth assay as described previously ([24]). […] A fluorescein signal was detected as an increase in fluorescence (excitation wavelength = 485 nm, emission wavelength = 535 nm) as a measure of growth. Different concentrations of ligand (0.01 nM–100 μM) were assayed using 96-well plates, and fluorescence was detected using a Tecan Infinite M200 microplate reader (Tecan Ultra Evolution, Reading, UK) or a Mithras LB 940 microplate reader (Berthold Technologies, Harpenden, UK) for 20 h. […]

T1 sequence (Q16602 23-461): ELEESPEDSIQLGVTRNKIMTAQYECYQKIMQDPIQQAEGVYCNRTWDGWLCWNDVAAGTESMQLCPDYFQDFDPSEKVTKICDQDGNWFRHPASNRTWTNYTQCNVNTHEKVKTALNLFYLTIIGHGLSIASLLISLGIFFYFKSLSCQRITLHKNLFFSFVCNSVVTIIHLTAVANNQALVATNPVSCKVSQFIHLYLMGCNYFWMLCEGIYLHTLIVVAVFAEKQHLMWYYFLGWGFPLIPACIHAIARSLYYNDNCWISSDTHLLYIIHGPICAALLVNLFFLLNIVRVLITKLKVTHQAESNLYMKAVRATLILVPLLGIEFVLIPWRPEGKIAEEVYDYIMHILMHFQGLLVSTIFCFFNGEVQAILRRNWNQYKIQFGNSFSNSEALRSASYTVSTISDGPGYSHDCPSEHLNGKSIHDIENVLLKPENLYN
T1 sequence (O60895 43-175): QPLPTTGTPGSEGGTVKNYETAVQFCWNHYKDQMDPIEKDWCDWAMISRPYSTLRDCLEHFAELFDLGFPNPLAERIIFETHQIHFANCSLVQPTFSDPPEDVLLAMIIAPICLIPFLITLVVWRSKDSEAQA

Compound: CSCC[C@H](NC(=O)[C@H](CC(C)C)NC(=O)[C@H](CCC(N)=O)NC(=O)[C@H](Cc1c[nH]c2ccccc12)NC(=O)[C@H](CC(C)C)NC(=O)[C@H](CCCNC(=N)N)NC(=O)[C@H](Cc1c[nH]cn1)NC(=O)[C@H](CO)NC(=O)[C@H](CC(C)C)NC(=O)[C@H](CC(N)=O)NC(=O)[C@H](CCC(N)=O)NC(=O)[C@@H](NC(=O)[C@H](CCC(N)=O)NC(=O)[C@@H]1CSSC[C@H](NC(=O)CNC(=O)[C@@H](NC(=O)[C@H](CCCNC(=N)N)NC(=O)[C@H](CC(C)C)NC(=O)[C@H](CC(C)C)NC(=O)[C@H](CCC(N)=O)NC(=O)[C@H](C)NC(=O)[C@H](CCC(N)=O)NC(=O)[C@@H](N)[C@@H](C)O)C(C)C)C(=O)N[C@@H](C(C)C)C(=O)N[C@@H](CC(C)C)C(=O)NCC(=O)N[C@@H]([C@@H](C)O)C(=O)N1)C(C)C)C(=O)NCC(=O)N1CCC[C@H]1C(=O)N[C@@H](C)C(=O)NCC(=O)N[C@@H](CCCNC(=N)N)C(=O)N[C@@H](CCC(N)=O)C(=O)N[C@@H](CC(=O)O)C(=O)N[C@@H](CO)C(=O)N[C@@H](C)C(=O)N1CCC[C@H]1C(=O)N[C@H](C(=O)N[C@@H](CC(=O)O)C(=O)N1CCC[C@H]1C(=O)N[C@@H](CO)C(=O)N[C@@H](CO)C(=O)N1CCC[C@H]1C(=O)N[C@@H](Cc1c[nH]cn1)C(=O)N[C@@H](CO)C(=O)N[C@@H](Cc1ccc(O)cc1)C(N)=O)C(C)C [AM2, adrenomedullin 2]
- Emax: 11.3 ± 1.3%

From paper PMC5063977 (The Journal of Biological Chemistry, 2016)
